Data published in the NIST ThermoML archive (doi:10.1016/j.jct.2014.05.019).

Assay: xn = mol fraction of the nth substance listed
Settings: 100 kPa, Liquid; for electrical conductivity: Alternating current cell with electrodes; for viscosity: Falling or rolling sphere viscometry; for mass density: Vibrating tube method

NC(CO)C(=O)[O-].[Na+] (stereo not drawn) [sodium DL-serine] + O
Settings	electrical conductivity [S/m]	mass density [kg/m3]	viscosity [mPa·s]
303.15 K, x1 = 0.009	2.7	1028.3	0.9965
303.15 K, x1 = 0.018	4.28	1060.1	1.221
303.15 K, x1 = 0.028	5.19	1090.9	1.552
303.15 K, x1 = 0.037	5.57	1121.1	1.967
303.15 K, x1 = 0.048	5.59	1150.7	2.599
303.15 K, x1 = 0.058	5.3	1181.9	–
303.15 K, x1 = 0.059	–	–	3.496
308.15 K, x1 = 0.009	2.98	1026.5	0.9018
308.15 K, x1 = 0.018	4.73	1058.1	1.097
308.15 K, x1 = 0.028	5.74	1088.8	1.377
308.15 K, x1 = 0.037	6.2	1118.7	1.739
308.15 K, x1 = 0.048	6.27	1148.2	2.28
308.15 K, x1 = 0.058	5.99	1179.2	–
308.15 K, x1 = 0.059	–	–	3.027
313.15 K, x1 = 0.009	3.27	1024.6	0.8058
313.15 K, x1 = 0.018	5.2	1055.9	0.9981
313.15 K, x1 = 0.028	6.3	1086.4	1.236
313.15 K, x1 = 0.037	6.82	1116.3	1.563
313.15 K, x1 = 0.048	6.96	1145.5	2.007
313.15 K, x1 = 0.058	6.69	1176.5	–
313.15 K, x1 = 0.059	–	–	2.661
318.15 K, x1 = 0.009	3.57	1022.5	0.7337
318.15 K, x1 = 0.018	5.64	1053.6	0.8941
318.15 K, x1 = 0.028	6.87	1084	1.116
318.15 K, x1 = 0.037	7.49	1113.7	1.394
318.15 K, x1 = 0.048	7.66	1142.8	1.792
318.15 K, x1 = 0.058	7.44	1173.7	–
318.15 K, x1 = 0.059	–	–	2.351
323.15 K, x1 = 0.009	3.87	1020.2	0.6788
323.15 K, x1 = 0.018	6.12	1051.2	0.8127
323.15 K, x1 = 0.028	7.46	1081.5	1.012
323.15 K, x1 = 0.037	8.17	1111.1	1.26
323.15 K, x1 = 0.048	8.38	1140.1	1.608
323.15 K, x1 = 0.058	8.19	1170.8	–
323.15 K, x1 = 0.059	–	–	2.091
328.15 K, x1 = 0.009	4.17	1017.8	0.6217
328.15 K, x1 = 0.018	6.59	1048.7	0.7448
328.15 K, x1 = 0.028	8.05	1078.9	0.9186
328.15 K, x1 = 0.037	8.86	1108.3	1.149
328.15 K, x1 = 0.048	9.12	1137.3	1.452
328.15 K, x1 = 0.058	8.97	1167.9	–
328.15 K, x1 = 0.059	–	–	1.872
333.15 K, x1 = 0.009	4.48	1015.3	0.575
333.15 K, x1 = 0.018	7.06	1046	0.692
333.15 K, x1 = 0.028	8.64	1076.1	0.8431
333.15 K, x1 = 0.037	9.52	1105.5	1.055
333.15 K, x1 = 0.048	9.82	1134.4	1.321
333.15 K, x1 = 0.058	9.74	1164.9	–
333.15 K, x1 = 0.059	–	–	1.709
338.15 K, x1 = 0.009	4.8	1012.7	0.537
338.15 K, x1 = 0.018	7.53	1043.2	0.6342
338.15 K, x1 = 0.028	9.24	1073.3	0.7788
338.15 K, x1 = 0.037	10.2	1102.6	0.9608
338.15 K, x1 = 0.048	10.6	1131.4	1.206
338.15 K, x1 = 0.058	10.5	1161.8	–
338.15 K, x1 = 0.059	–	–	1.531
343.15 K, x1 = 0.009	5.1	1009.9	0.4983
343.15 K, x1 = 0.018	8.01	1040.4	0.5945
343.15 K, x1 = 0.028	9.84	1070.4	0.72
343.15 K, x1 = 0.037	10.8	1099.6	0.8858
343.15 K, x1 = 0.048	11.3	1128.4	1.108
343.15 K, x1 = 0.058	11.3	1158.7	–
343.15 K, x1 = 0.059	–	–	1.399
